Measured values: patent publication US11491150B2, “Organic compounds” (INTRA-CELLULAR THERAPIES, INC., priority 2017, dated 2022)
Read-outs that look alike come from different tables or passages of the source.

What was measured:
[1] = biological target: α7 nAChR (Homo sapiens, UniProt P36544); assay: Binding at 10 μM to α7 nAChR (selectivity test)
[2] = biological target: neuronal α4β2 nAChR (Homo sapiens, UniProt P17787+P43681); assay: Binding at 10 μM to neuronal α4β2 nAChR (selectivity test)
Description: (§1) The selectivity of these compounds is measured on the neuronal α4β2 and the muscle-type nAChRs using methods known in the art.

[3] = system: muscle-type nAChRs; assay: Binding at 10 μM to muscle-type nAChRs (selectivity test)
Description: as §1

[4] = Pharmacokinetic study, brain penetrability after oral administration; type: in vivo; details: mouse, male C57B1/6 mice, oral 10 mg/kg, t=2 h
Description: The pharmacokinetic (PK) study of compounds are performed in male C57B1/6 mice (n=3 per time point) after an oral administration at 10 mg/kg to evaluate the brain penetrability. The concentrations of representative Compound 16 in brain and plasma are 0.15 μM and 0.2 μM at time t=2 h, respectively. The tmax of Compound Q is probably longer than 2 h.

[5] = system: mouse model of diabetes; assay: Nephropathy in streptozotocin mouse model of diabetes (eNOS-/- mice), α7-nAchR blocker; type: in vivo; details: blocker 2 mg/kg i.p. 5 days a week, 10 weeks; for Systolic BP: tail-cuff
Description: Normal mice express the α7-nAChR in both the proximal and distal tubule of the kidneys. Tests were conducted to determine the role of the α7-nAchR on the severity of nephropathy in a mouse model of diabetes. Diabetes mellitus (DM) was induced in all mice with streptozotocin (STZ). This test closely mimics diabetic […] in humans. Mice were either given nicotine (DN) in doses of […] in drinking water or tap water with no nicotine for a period of 10 weeks (DT). Targeted disruption of the endothelial nitric oxide synthase gene led to eNOS^-/- knockout in a group of mice to increase susceptibility of STZ in the mice. One group of eNOS^-/- knockout mice was also subjected to targeted disruption of the α7-nAchR gene, which led to eNOS^-/-/α7-nAchR^-/- double knockout mice (DN^-/- and DT^-/-). A separate group of eNOS^-/- mice also received a α7-nAchR blocker (DN+B and DT+B). The blocker used was Compound 17 at a dosage of 2 mg/kg given intraperitoneally for 5 days a week for a period of 10 weeks. Blood pressure was measured by tail-cuff method and urine was collected every 2 weeks for albuminuria.
All mice became diabetic after being administered STZ, and all mice were also hypertensive.

[6] = DN + B: diabetic eNOS-/- mice on nicotine
[7] = DT + B: diabetic eNOS-/- mice on tap water

Sequence of neuronal α4β2 nAChR (P43681 29-627 limits assumed): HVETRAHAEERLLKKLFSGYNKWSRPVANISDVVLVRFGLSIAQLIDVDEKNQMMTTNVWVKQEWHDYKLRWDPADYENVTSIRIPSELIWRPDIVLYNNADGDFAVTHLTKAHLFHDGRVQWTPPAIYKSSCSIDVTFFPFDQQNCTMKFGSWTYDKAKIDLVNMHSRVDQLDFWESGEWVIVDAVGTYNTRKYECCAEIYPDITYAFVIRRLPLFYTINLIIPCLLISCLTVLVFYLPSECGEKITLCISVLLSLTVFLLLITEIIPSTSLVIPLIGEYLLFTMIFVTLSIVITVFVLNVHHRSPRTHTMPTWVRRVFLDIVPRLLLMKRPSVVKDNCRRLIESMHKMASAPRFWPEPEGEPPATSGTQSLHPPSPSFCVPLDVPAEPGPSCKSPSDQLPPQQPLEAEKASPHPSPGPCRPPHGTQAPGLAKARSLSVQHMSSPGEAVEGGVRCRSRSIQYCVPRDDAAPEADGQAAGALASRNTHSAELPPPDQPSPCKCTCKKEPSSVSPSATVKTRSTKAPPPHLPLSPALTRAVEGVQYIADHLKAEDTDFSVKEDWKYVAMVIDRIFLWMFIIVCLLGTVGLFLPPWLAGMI
Sequence of neuronal α4β2 nAChR (P17787 26-502): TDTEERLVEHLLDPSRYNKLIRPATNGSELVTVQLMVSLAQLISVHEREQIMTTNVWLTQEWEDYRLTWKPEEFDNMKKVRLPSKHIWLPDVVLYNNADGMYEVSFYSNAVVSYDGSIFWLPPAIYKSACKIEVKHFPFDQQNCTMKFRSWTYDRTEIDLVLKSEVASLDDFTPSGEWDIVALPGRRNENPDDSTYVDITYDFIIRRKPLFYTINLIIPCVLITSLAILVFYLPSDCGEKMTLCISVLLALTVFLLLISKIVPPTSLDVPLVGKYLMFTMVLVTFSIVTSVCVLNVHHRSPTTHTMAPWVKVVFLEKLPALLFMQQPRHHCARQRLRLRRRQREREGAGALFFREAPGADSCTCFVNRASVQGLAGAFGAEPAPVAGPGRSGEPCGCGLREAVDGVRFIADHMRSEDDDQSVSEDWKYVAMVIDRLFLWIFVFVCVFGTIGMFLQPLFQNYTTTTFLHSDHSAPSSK
Sequence of α7 nAChR (P36544 23-502): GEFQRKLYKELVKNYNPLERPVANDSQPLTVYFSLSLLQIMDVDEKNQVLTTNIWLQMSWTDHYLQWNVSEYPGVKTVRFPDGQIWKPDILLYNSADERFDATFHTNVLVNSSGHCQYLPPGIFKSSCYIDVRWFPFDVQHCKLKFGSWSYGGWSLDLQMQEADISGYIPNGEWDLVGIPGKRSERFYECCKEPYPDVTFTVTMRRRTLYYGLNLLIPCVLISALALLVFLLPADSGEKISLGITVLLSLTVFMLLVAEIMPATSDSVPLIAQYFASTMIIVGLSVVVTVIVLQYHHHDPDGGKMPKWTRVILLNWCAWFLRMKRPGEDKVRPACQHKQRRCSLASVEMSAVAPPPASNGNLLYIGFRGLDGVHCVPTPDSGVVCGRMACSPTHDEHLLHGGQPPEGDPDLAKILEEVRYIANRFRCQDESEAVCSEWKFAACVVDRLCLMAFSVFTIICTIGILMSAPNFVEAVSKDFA

binding to the α7 receptor [1] [%]	binding to the neuronal α4β2 nAChR [2]	binding to muscle-type nAChRs [3]	concentration at 2 h ([4]; brain, read-out: concentration in brain) [nM]	concentration at 2 h ([4]; plasma, read-out: concentration in plasma) [nM]	Compound	Albuminuria [5, 6] [ng/ml/24 hr]	Blood Glucose [5, 6] [mg/dL]	Systolic BP [5, 6] [mmHg]	Albuminuria [5, 7] [ng/ml/24 hr]	Blood Glucose [5, 7] [mg/dL]	Systolic BP [5, 7] [mmHg]
92	no detectable binding	no detectable binding	150	200	CN(CC1CC[N+](C)(Cc2ccccc2)CC1)C(=O)c1cn(Cc2ccccc2Cl)nn1 (centres unmarked) [Compound 16]	–	–	–	–	–	–
–	–	–	–	–	NS(=O)(=O)c1ccc(Cn2ncc(C(=O)NCC3CCN(Cc4ccccc4)CC3)n2)cc1 [Compound 17]	35 ± 6	441 ± 43	142 ± 13	50 ± 13	354 ± 51	150 ± 11
